# Source: patent publication US7704976B2, “Use of N-acetyl-D-glucosamine for preparing medicines for urogenital tract infection's treatment and prevention” (Third Military Medical University, Chinese People's …, priority 2002, dated 2010)
# Columns and labels:
# [1] = system: condyloma acuminatum virus infection; test: Clinic test, condyloma acuminatum virus infection patients; format: in vivo, human; conditions: 2% aerosol topically sprayed to infected areas
# Description: (§1) • 1. 170 patients suffering various venereal diseases were picked out, including 50 patients suffering gonorrhea, 50 patients suffering syphilis, 20 patients suffering condyloma acuminatum virus infection, 40 patients suffering trichomonas vaginalis infection, and 10 patients suffering candida albicans. 2% N-acetyl-D-glucosamine aerosol was topically sprayed to infected areas, and the effects of the compound of formula (I) for treatment of urogenital tract infections were determined by smearing and microscopic examination, and by isolation and culture.
# (§2) Observation of therapeutical effect of N-acetyl-D-glucosamine for treatment of urogenital tract infections
# Gonorrhea = test: Clinic test, gonorrhea patients; format: in vivo, human; conditions: 2% aerosol topically sprayed to infected areas
# Description: as §1, §2
# Proteus Mirabilis = test: Promoting wave test (bio-wave model on LB plate); format: cell-based; conditions: final concentration of 0.5% on LB plate, 37° C.
# Excerpt: 1. […] 1.3 Experimental Method:
# Syphilis = test: Clinic test, syphilis patients; format: in vivo, human; conditions: 2% aerosol topically sprayed to infected areas
# Description: as §1, §2
# bacillus pyocyaneus = test: Test of effect for suppressing bacillus pyocyaneus transplantation on skin
# Excerpt: (§3) III. Tests of Effect for Suppressing Bacterial Transplantation
# (§4) • 1. Test of effect for suppressing bacillus pyocyaneus transplantation on skin • 2. Test of suppressing bacteria
# [2] = system: various urogenital tract infections
# [3] = in vivo
# Excerpt: II. Toxicological Test of the Compound of Formula (I), Including:
# • 1. Acute toxicity test: including tests of oral administration, intravenous injection administration, and maximum limit amount for administration. • 2. Ames test; • 3. Micronucleus test of mouse bone marrow cell; • 4. Abnormality test of mouse sperm; • 5. Aberration test of mouse testis chromosome; • 6. Chronic lethal test; • 7. Subchronic toxicity (feed for 90 days) test; • 8. Traditional deformity-inducing test.
# [4] = system: trichomonas vaginalis infection; test: Clinic test, trichomonas vaginalis infection patients; format: in vivo, human; conditions: 2% aerosol topically sprayed to infected areas
# Description: as §1, §2
# candida albicans = test: Clinic test, candida albicans patients; format: in vivo, human; conditions: 2% aerosol topically sprayed to infected areas
# Description: as §1, §2
# bacteria = test: Test of suppressing bacteria; format: cell-based
# Excerpt: as §3, §4
smiles,measurement,setting,value
CC(=O)N[C@H]1C(O)O[C@H](CO)[C@@H](O)[C@@H]1O (stereo partly drawn) [N-acetyl-D-glucosamine],Effective rate (%),[1],80%
same,Ineffective rate (%),[1],20%
same,Effective rate (%),Gonorrhea,90%
same,Ineffective rate (%),Gonorrhea,10%
same,promoting wave function (ring pattern versus control),Proteus Mirabilis,many fine waves on each ring emerged
same,Effective rate (%),Syphilis,60%
same,Ineffective rate (%),Syphilis,40%
same,transplantation and growth of bacillus pyocyaneus,bacillus pyocyaneus,suppressed the transplantation and growth of bacillus pyocyaneus
same,effective rate for treatment of various urogenital tract infections,[2],79%
same,dosage at which acute toxicosis reaction had not appeared,[3],more than 2 g/kg
same,Effective rate (%),[4],75%
same,Ineffective rate (%),[4],25%
same,Effective rate (%),candida albicans,90%
same,Ineffective rate (%),candida albicans,10%
same,bactericidal or bacteriostasis effect,bacteria,essentially exhibited no bactericidal or bacteriostasis effect
